{"source": "patent US12653799B2", "about": "“Compositions and methods for treating Alzheimer's disease” (ELEANORE BENNETT CHARITABLE TRUST #2, priority 2021, dated 2026)", "key": {"[1]": {"tested_on": "CREB phosphorylation (pS133) in SH-SY5Y cells", "experiment": "Endogenous p-CREB levels in Aβ42-expressing SH-SY5Y cells", "conditions": "PS48 50 nM; insulin 250 ng/ml 30 min", "description": "Whole cell extracts were fractionated by Western and probed with monoclonal anti-pCREB pS133. […] All cells were stimulated with insulin 250 ng/ml for 30 min before harvest."}, "[2]": {"tested_on": "Akt Ser 473 phosphorylation in N2a cells", "experiment": "Insulin sensitization at subthreshold insulin in N2a cells", "conditions": "insulin 3 nM, 15 min; PS48 0.1 to 100 μM, 2 hrs"}, "APP/PS-1 transgenic mice": {"tested_on": "APP/PS-1 transgenic mice", "experiment": "Morris water maze in APP/PS-1 transgenic mice, PS48 via diet", "type": "in vivo, mouse", "conditions": "for time spent over the platform area, acquisition probe: TG", "procedure": "Next, a series of experiments was performed using a Morris water maze. WT mice fed standard diet (SD) reached the hidden platform in a shorter time compared to TG-SD mice. […] The PS48 effect was more pronounced within the standard diet condition. *p<0.05, **p<0.01, ANOVA; ^p<0.05, t-test. WT mice fed standard diet (SD) reached the hidden platform zone in a shorter distance compared to TG-SD mice. […] The PS48 effect was more pronounced within the standard diet condition. Memory acquisition for the location of the escape platform location was tested in 12-month-old APP/PS1 transgenic and littermate mice. The removed escape platform was located in the northeast quadrant of the tank. […] The 10 cm platform is indicated in the figure by the shaded circle in the upper right quadrant. The following metrics were quantified: (1) time spent swimming over the target area, (2) latency to attain the target area, (3) path length to platform, and (4) number of crossings over the area. […] Transgenic animals fed high fat diet (HFD) performed less well than those on standard diet. […] Lower latency values indicate better recall for the target location. […] Animals were retrained with the platform in the SE quadrant and probe phase conducted as before. FIGS. 13E-13H show path length taken, in cm, to first reach hidden platform. […] Similar probe results were obtained in the subsequent reversal trial. […] (±1 SEM, n=16 data points per group, *p<0.05, **p<0.01, ++p<0.001). […] The data has similar import to time spent over platform area above."}, "[3]": {"tested_on": "phospho-GSK (GSK3α/β) in SH-SY5Y cells", "experiment": "Cellular phospho-GSK levels in SH-SY5Y cells", "type": "cell-based", "conditions": "PS48 1 μM 0 to 2 hours; 0-100 μM 20 min", "procedure": "FIG. 8B. PS48 over time (1 μM; 0 to 2 hours) and concentration (20 min; 0-100 μM) was applied to SH-SY5Y cells. No changes in cellular phospho-GSK levels were observed."}, "transgenic mice": {"tested_on": "transgenic mice", "experiment": "Contextual and cued fear conditioning", "type": "in vivo, mouse", "conditions": "16-month-old Tg mice; no significant changes", "procedure": "Next, a series of experiments was performed to assess contextual and cued fear conditioning. 16-month-old mice WT, TG w/vehicle, and TG w/PS48 were first habituated to establish activity levels (300 sec), then presented 3 shock-tone pairings, followed by probes of contextual and cued fear memory. Prior to conditioning to the tone and foot shock, mice in all groups experienced very low levels of freezing (Baseline Freezing Day 1) (FIG. 14A) and the expected freezing to the shock (FIG. 14B).\nAfter the conditioning procedure, when mice were placed back in the same context but without tone or shock (Day 2), freezing was measured over 8 minutes, the last 4 minutes were quantified.\nOn Day 3 the context was changed for 2 minutes (12 bins) and mice were exposed to a continuous tone (cue) used during conditioning for 8 minutes. […] Freezing % was quantified as the number of 10-sec epochs in which there was no beam break over the total number of epochs in the 4-minute period (24). […] Sec FIG. 14D."}, "[4]": {"tested_on": "LTP in rat prefrontal cortical slices", "experiment": "Long term potentiation (LTP) in acute prefrontal cortical slices perfused with Aβ42 oligomers", "type": "cell-based", "conditions": "PS48 10 μM", "procedure": "FIG. 3A. […] LTP was measured as % baseline excitatory postsynaptic potential (EPSP) amplitudes. […] Washout restored LTP (4).\nMinor modifications were made to previous published procedures (Marshall et al., 2017; Molina-Luna et al., 2009). Deeply anesthetized rats (pentobarbital, 50 mg/kg) were decapitated, their brains quickly removed and immersed in cold (5-7° C.), oxygenated (95% O2/5% CO2) artificial cerebrospinal fluid (ACSF) containing: 126 mM NaCl, 3 mM KCl, 1.25 mM NaH2PO4, 1 mM MgSO4, 2 mM CaCl2, 26 mM NaHCO3, 10 mM dextrose. […] Control treatment was DMSO in ACSF (artificial cerebrospinal fluid, 20 μM bicuculline). Extracellular postsynaptic field potentials were recorded using an AxoClamp2B amplifier (Axon instruments) and EX1 differential amplifier (Dagan), and digitized at 10 kHz. Data was acquired using Igor Pro (Wave Metrics) and Neuromatic (neuromatic.thinkrandom.com). The stimulus intensity eliciting 50% of the maximum amplitude (˜32 μA) was used for all measurements before and after LTP induction. Baseline amplitudes were recorded for 20-30 minutes using single field stimuli applied every 30 sec to layer IV-V using concentric bipolar electrodes. Following a stable baseline period, LTP was induced by two sets of high-frequency stimulation (HFS) at 100 Hz, 60 μA (twice stimulus intensity), for 1 sec, 20 sec apart. Extracellular postsynaptic field potentials were measured from layer II-III using glass micropipettes filled with 0.9% NaCl. The amplitude rather than the slope of evoked FPs was used as a measure of the population excitatory synaptic response because in the neocortex the initial slope was contaminated by antidromic stimulation. LTP values were expressed as percentage of mean baseline EPSP±SEM. Paired two-tailed t-tests were used for statistical analysis.\nLTP was measured as % baseline excitatory postsynaptic potential (EPSP) amplitudes. […] Washout restored LTP."}}, "data": [{"smiles": "O=C(O)/C=C(/CCc1ccc(Cl)cc1)c1ccccc1", "note": "[PS48, (Z)-5-(4-chlorophenyl)-3-phenylpent-2-enoic acid]", "values": [{"measurement": "p-CREB (pS133) levels reduced by Aβ42 expression", "setting": "[1]", "value": "mitigated the Aβ42 effect"}, {"measurement": "phosphorylation of Ser 473 at subthreshold insulin", "setting": "[2]", "value": "boosting the phosphorylation of Ser 473 to a 20 nM insulin-equivalence response"}, {"measurement": "latency to reach the hidden platform, place learning and reversal tasks", "setting": "APP/PS-1 transgenic mice; PS48 orally through diet, SD and HFD, more pronounced on standard diet", "value": "tended to reduce latency"}, {"measurement": "time spent over the platform area, acquisition probe", "setting": "APP/PS-1 transgenic mice; HFD supplemented with PS48, p<0.01 vs Tg HFD w/V", "value": "most significant improvement"}, {"measurement": "time spent over the platform area, acquisition probe", "setting": "APP/PS-1 transgenic mice; standard diet with PS48, p<0.10 vs vehicle fed", "value": "improved in this measure"}, {"measurement": "path length, acquisition and reversal data combined", "setting": "APP/PS-1 transgenic mice; Tg HFD group", "value": "significantly benefited"}, {"measurement": "latency to platform, acquisition probe", "setting": "APP/PS-1 transgenic mice; Tg mice on standard or high fat diet vs vehicle controls", "value": "Results favored"}, {"measurement": "path length to first reach hidden platform, probe", "setting": "APP/PS-1 transgenic mice; Tg on standard or HFD diet", "value": "trended improvements in the direction of WT"}, {"measurement": "crossing numbers over removed platform location", "setting": "APP/PS-1 transgenic mice; both probe trials combined, p<0.05 vs vehicle", "value": "performed significantly better than vehicle"}, {"measurement": "distance to zone to reach the hidden platform", "setting": "APP/PS-1 transgenic mice; dietary PS48, SD and HFD, more pronounced on standard diet", "value": "tended to reduce distance to zone"}, {"measurement": "resting cellular pGSK levels", "setting": "[3]", "value": "no effect"}, {"measurement": "cue fear conditioning, freezing", "setting": "transgenic mice", "value": "a trend in cue conditioning paradigm favored PS48 treatment"}, {"measurement": "LTP (% baseline EPSP amplitude) inhibited by Aβ42 oligomers", "setting": "[4]; Aβ42 ADDLs 0.5 μM, at the 1-hour mark after Aβ42 application", "value": "significantly improved LTP"}, {"measurement": "LTP (% baseline EPSP amplitude) inhibited by Aβ42 oligomers", "setting": "[4]; by 3 hours", "value": "the beneficial effect had disappeared"}]}]}
